Data published in patent publication US5109133A, “Antibiotic trienomycins and their production” (priority 1985, dated 1992).
“Also recorded” adds a separate entry of the source. Read-outs that look alike come from different tables or passages of the source.

What was measured:
[1] = test system: Piricularia oryzae KF 180; assay: microbe, parasite or virus in culture; format: cell-based; conditions: at 1 mg/ml; read-out: Inhibitory zone
[2] = test system: sarcoma-180 carcinoma cells; assay: Growth inhibition of sarcoma-180 carcinoma cells; format: cell-based
[3] = Stability; format: physicochemical
[4] = test system: fungi; assay: Antifungal activity (in words); format: cell-based; conditions: trienomycins
[5] = Solubility; format: physicochemical
[6] = test system: HeLa S3 cells; assay: Cytocidal action on HeLa S3 cells; conditions: for growth inhibitory activities: HeLa S3 cells
[7] = test system: sarcoma-180; assay: Antitumor activity, life prolongation in sarcoma-180-carcinoma-bearing ICR mice; format: in vivo; conditions: intraperitoneal, 1-5 days and 7-11 days
Source text: Trienomycin A, B or C is administrated intraperitoneally in sarcoma-180-carcinoma-bearing ICR mice for 1-5 days and 7-11 days. The life prolongation effects are observed as shown in the following: […]

[8] = Nature (acidity); format: physicochemical
[9] = test system: fungi; conditions: various fungi; known antibiotics; cited from earlier work
[10] = acidic condition at ambient temperature
[11] = chloroform, dichloromethane, tetrahydrofuran, ethyl acetate, butyl acetate, acetone, methanol, ethanol

SMILES	zone of inhibition at 1000 µg/mL [1] [mm]	growth inhibitory activities [2]	Stability [3, 10]	Stability ([3]; alkaline condition over pH 10)	antifungal activity [4]	Solubility [5, 11]	Solubility ([5]; hexane, water)	death of the HeLa S3 cells ([6]; 1.0 μg/ml)	growth inhibitory activities [6]	Life Prolongation Ratio ([7]; 10 mg/kg/day) [%]	Life Prolongation Ratio ([7]; 20 mg/kg/day) [%]	Nature [8]	death of the HeLa S3 cells ([6]; 2.0 μg/ml)	antifungal activity [9]
COC1C=CC=CC=CCC(OC(=O)C(C)NC(=O)C2CCCCC2)C(C)C(O)C(C)=CCCc2cc(O)cc(c2)NC(=O)C1 (stereo not drawn) [Trienomycin A]	20	growth inhibitory activities	Stable	Instable	exhibit antifungal activity against some kind of fungi	Soluble	Insoluble	death of the HeLa S3 cells	growth inhibitory activities	33	76	weakly acidic substance; also recorded: weak acidic substances	–	–
COC1C=CC=CC=CCC(OC(=O)C(C)NC(=O)CC(C)C)C(C)C(O)C(C)=CCCc2cc(O)cc(c2)NC(=O)C1 (stereo not drawn) [Trienomycin B]	15	growth inhibitory activities	Stable	Instable	exhibit antifungal activity against some kind of fungi	Soluble	Insoluble	–	growth inhibitory activities	45	80	weakly acidic substance; also recorded: weak acidic substances	death of the HeLa S3 cells	–
CCC(C)C(=O)NC(C)C(=O)OC1CC=CC=CC=CC(OC)CC(=O)Nc2cc(O)cc(c2)CCC=C(C)C(O)C1C (stereo not drawn) [Trienomycin C]	12	growth inhibitory activities	Stable	Instable	exhibit antifungal activity against some kind of fungi	Soluble	Insoluble	–	growth inhibitory activities	50	110	weakly acidic substance; also recorded: weak acidic substances	death of the HeLa S3 cells	–
CO[C@@H]1/C=C/C=C/C=C\C[C@H](OC(=O)[C@@H](C)NC(=O)CC(C)C)[C@@H](C)[C@H](O)/C(C)=C/CCC2=CC(=O)C=C(NC(=O)C1)C2=O [ansatrienin A3]	–	–	–	–	–	–	–	–	–	–	–	–	–	exhibit antifungal activity against various fungi
COC1C=CC=CC=CCC(OC(=O)C(C)NC(=O)C2CCCCC2)C(C)C(O)C(C)=CCCc2cc(O)cc(c2O)NC(=O)C1 (stereo not drawn) [mycotrienin II]	–	–	–	–	–	–	–	–	–	–	–	–	–	exhibit antifungal activity against various fungi
COC1C=CC=CC=CCC(OC(=O)C(C)NC(=O)C2CCCCC2)C(C)C(O)C(C)=CCCC2=CC(=O)C=C(NC(=O)C1)C2=O (stereo not drawn) [mycotrienin I]	–	–	–	–	–	–	–	–	–	–	–	–	–	exhibit antifungal activity against various fungi
